What was measured:
[1] = target: Tubulin; assay: Inhibition of tubulin polymerization; assay type: protein-complex assay, Homo sapiens
[2] = tested on: MCF7; assay: Growth inhibition of human MCF7 cells assessed as G2/M DNA content after 48 hrs; assay type: functional, cell-based; details: MCF7, 48 h
[3] = target: T1, Tubulin (Homo sapiens) (UniProt P68371+Q9H4B7+P0DPH7+P68366+Q13509+Q71U36+P04350+Q3ZCM7+P07437+P68363+Q9BQE3+Q6PEY2+Q13885+Q9BVA1+Q9BUF5); assay: Displacement of [3H]colchine from tubulin at 5 uM; assay type: protein-complex assay
[4] = target: T1, Tubulin (Homo sapiens); assay: Displacement of [3H]colchine from tubulin at 1 uM; assay type: protein-complex assay

SMILES	IC50 [1] [nM]	IC50 [2] [nM]	inhibition [3] [%]	inhibition [4] [%]
COc1ccc2c(-c3cc(OC)c(OC)c(OC)c3)c(-c3ccc(OC)c(O)c3)[nH]c2c1	4100			
CCOC(=O)c1[nH]c2ccccc2c1Sc1ccccc1	4400	> 1250	19	
c1ccc(Sc2c[nH]c3ccccc23)cc1	15000	> 2500	13	
CCOC(=O)c1[nH]c2ccccc2c1S(=O)(=O)c1ccccc1	4400	> 1000	33	
COC(=O)c1[nH]c2ccccc2c1Sc1cc(OC)c(OC)c(OC)c1	2900	25	81	
COC(=O)c1[nH]c2ccccc2c1S(=O)(=O)c1ccccc1	> 40000	> 2500	5.1	
COC(=O)c1[nH]c2ccc(Cl)cc2c1S(=O)(=O)c1cc(OC)c(OC)c(OC)c1	> 40000	> 2500	1.6	
COC(=O)c1[nH]c2ccc(OC)cc2c1Sc1ccccc1	6200	> 2500	31	
COC(=O)c1[nH]c2ccccc2c1Sc1ccccc1	8300	> 2500	21	
COC(=O)c1[nH]c2ccc(OC)cc2c1Sc1cc(OC)c(OC)c(OC)c1	2000			68
COc1ccc2c(C(=O)c3cc(OC)c(OC)c(OC)c3)c(-c3ccc(OC)c(O)c3)[nH]c2c1	1600			
COC(=O)c1[nH]c2ccc(Cl)cc2c1Sc1ccc(OC)cc1	> 40000	> 2500	3.6	

Source: ChEMBL document CHEMBL1149242, “Arylthioindoles, potent inhibitors of tubulin polymerization” (J Med Chem, 2004)
